Source: patent US11931356B1, “Compositions and methods for treating human papilloma virus infections” (priority 2022, dated 2024)

Legend:
[1] = target: HPV-16 E6 protein with Cys51 (Human papillomavirus type 16, UniProt P03126); format: binding; conditions: whole protein mass spectrum
[2] = target: C51S (cysteine 51 mutation to serine) HPV-16 E6 protein (Human papillomavirus type 16, UniProt P03126, C58S); assay: whole protein mass spectra of mutant C51S HPV-16 E6 protein upon exposure to compound; format: binding, human papilloma virus 16; conditions: whole protein mass spectrum; cysteine 51 replaced by serine
C51S (cysteine 51 mutation to serine) HPV-16 E6 protein, sequence (P03126 8-158 C58S): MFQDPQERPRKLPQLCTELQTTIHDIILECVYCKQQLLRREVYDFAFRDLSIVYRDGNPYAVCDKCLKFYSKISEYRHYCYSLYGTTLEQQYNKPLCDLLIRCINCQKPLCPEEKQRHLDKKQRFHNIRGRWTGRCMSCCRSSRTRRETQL

HPV-16 E6 protein with Cys51, sequence (P03126 8-158): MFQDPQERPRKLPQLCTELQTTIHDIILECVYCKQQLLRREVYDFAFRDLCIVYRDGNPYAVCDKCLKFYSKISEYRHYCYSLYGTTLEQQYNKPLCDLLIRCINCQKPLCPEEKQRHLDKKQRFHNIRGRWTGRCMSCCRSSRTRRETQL

| Compound | mass shift of the HPV-16 E6 protein upon exposure to compound (covalent bonding at Cys51) [1] | mass shift of the C51S HPV-16 E6 protein upon exposure to compound [2] |
| --- | --- | --- |
| C=CC(=O)N1CCN(c2nc(CCc3ccc(F)c(OC)c3)nc3sc4c(c23)CCCC4)CC1 [Compound 1] | mass shift | lack of mass shift |
| C=CC(=O)N1CCN(c2nc(CCc3ccc(O)c(F)c3)nc3sc4c(c23)CCCC4)CC1 [Compound 2] | mass shift | lack of mass shift |
| C=CC(=O)N1CCN(c2nc(CCc3ccc(F)c(O)c3)nc3sc4c(c23)CCCC4)CC1 [Compound 3] | mass shift | lack of mass shift |
| C=CC(=O)N1CCN(c2nc(CCc3cc(F)c(OC)c(F)c3)nc3sc4c(c23)CCCC4)CC1 [Compound 4] | mass shift | lack of mass shift |
| C=CC(=O)N1CCN(c2nc(CCc3cnc(OC)c(F)c3)nc3sc4c(c23)CCCC4)CC1 [Compound 5] | mass shift | lack of mass shift |
| C=CC(=O)N1CCN(c2nc(CCc3ccc(OC)c(OC)c3)nc3sc4c(c23)CCCC4)CC1 [Compound 6] | mass shift | lack of mass shift |
| C=CC(=O)N1CCN(C(=O)CN2CCc3sccc3C2c2cccc3ccccc23)CC1 (stereo not shown) [Compound 7] | mass shift | lack of mass shift |
| C=CC(=O)N1CCN(c2nc(C3CCCC3)nc3cccc(F)c23)CC1 [Compound 8] | mass shift | lack of mass shift |
| C=CC(=O)N1CCN(C(=O)CN2CCc3sccc3C2c2cccc3ncccc23)CC1 (stereo not shown) [Compound 9] | mass shift | lack of mass shift |
| C=CC(=O)N1CCN(c2nc(CCc3ccc(OC)c(F)c3)nc3sc4c(c23)CCCC4)CC1 [Compound 10] | mass shift | lack of mass shift |
| C=CC(=O)N1CCN(c2nc(CCc3cccc(OC)c3)nc3ccccc23)C(C)C1 (stereo not shown) [Compound 11] | mass shift | lack of mass shift |
